Assay results published in patent publication US5214037A, “Thioalkylthio cephalosporin derivatives” (Shionogi & Co., Ltd., priority 1990, dated 1993).
Values after ≈ are worked out from the molar mass of the structure shown. Counter-ions that a name gives are not always drawn. Each block holds one compound with its values, some of them ahead of it.

Tests used:
[1] = tested on: Morgania morganii SR9; experiment: Antibacterial activity in vitro, minimal inhibitory concentration (two-fold agar dilution); type: cell-based
Experimental: (§1) Antibacterial activity in vitro : A solution of the test compound in 0.01N-aqueous sodium hydrogen carbonate was applied to an agar plate by two-fold dilution method and the minimal inhibitory concentrations against Gram-negative and Gram-positive bacteria were measured according to the standard method of the Japan Society of Chemotherapy.

[2] = tested on: Enterobacter cloacae SR233; experiment: as above; type: cell-based
Experimental: as §1

[3] = Blood level at 15 minutes after oral administration to mice; type: in vivo, mouse; settings: 40 mg/kg oral; for concentration at 0.25 h: mouse, blood
Experimental: The in vivo absorption rate of the compound I after oral administration was determined by administering a compound of the invention to mouse and measuring the blood level.
Blood level at 15 minutes after oral administration : A test compound (40 mg/kg) in a 5% suspension of arabic gum was administered to a mouse (weighing ca. 25 g) through an enteral tube. After 15 minutes, the blood in the heart cavity was taken and the concentration of the test compound was measured by the band culture method using Escherichia coli 7437.

[4] = tested on: Staphylococcus aureus Smith; experiment: Antibacterial activity in vitro, minimal inhibitory concentration (two-fold agar dilution); type: cell-based
Experimental: as §1

[5] = tested on: Staphylococcus aureus 209P JC-1; experiment: as above; type: cell-based; settings: Staphylococcus aureus 209P JC-1, agar dilution
Experimental: as §1

[6] = tested on: Escherichia coli 7437; experiment: as above; type: cell-based; settings: Escherichia coli 7437, agar dilution
Experimental: as §1

[7] = tested on: Proteus vulgaris CN-329; experiment: as above; type: cell-based; settings: CN329; Proteus vulgaris CN-329, agar dilution
Experimental: as §1

[8] = tested on: Escherichia coli EC-14; experiment: as above; type: cell-based; settings: EC14; Escherichia coli EC-14, agar dilution
Experimental: as §1

[9] = tested on: Pseudomonas aeruginosa A25619; experiment: as above; type: cell-based
Experimental: as §1

[10] = tested on: Proteus mirabilis PR4; experiment: as above; type: cell-based
Experimental: as §1

[11] = tested on: Serratia marcescens SR1005; experiment: as above; type: cell-based
Experimental: as §1

[12] = tested on: Serratia marcescens A13880; experiment: as above; type: cell-based
Experimental: as §1

[13] = tested on: Haemophilus influenzae SR3508; experiment: as above; type: cell-based
Experimental: as §1

[14] = tested on: Klebsiella pneumoniae SR1; experiment: as above; type: cell-based; settings: unit cut off in print
Experimental: as §1

[15] = tested on: Escherichia coli SR377; experiment: as above; type: cell-based
Experimental: as §1

- MIC [1]: 0.1 µg/mL (≈ 0.189 µM)
- MIC [2]: 0.8 µg/mL (≈ 1.51 µM)
- concentration at 0.25 h [3]: 12100 ng/mL
Structure (SMILES): Nc1nc(/C(=N/O)C(=O)N[C@@H]2C(=O)N3C(C(=O)O)=C(SCSCc4c[nH]nn4)CS[C@H]23)cs1 [Example 6-1, 7β-[(Z)-2-(2-aminothiazol-4-yl) -2-hydroxyiminoacetamido]-3-(1,2,3-triazol-4-ylmethylthiomethylthio) -3-cephem-4-carboxylic acid]

- MIC [4]: 0.1 µg/mL (≈ 0.213 µM)
- concentration at 0.25 h [3]: 28000 ng/mL
Structure (SMILES): O=C(CSC(F)F)N[C@@H]1C(=O)N2C(C(=O)O)=C(SCSc3c[nH]nn3)CS[C@H]12 [Example 7-1, 7β-difluoromethylthioacetamido-3-(1,2,3-triazol-4-ylthiomethylthio)-3-cephem-4-carboxylic acid]

- MIC [4]: 0.05 µg/mL (≈ 0.108 µM)
- MIC [5]: 0.05 µg/mL (≈ 0.108 µM)
- concentration at 0.25 h [3]: 15000 ng/mL
Structure (SMILES): O=C(Cc1ccccc1)N[C@@H]1C(=O)N2C(C(=O)O)=C(SCSc3c[nH]nn3)CS[C@H]12 [Example 7-2, 7β-phenylacetylamino-3-(1,2,3-triazol-4-yl) thiomethylthio-3-cephem-4-carboxylic acid]

- concentration at 0.25 h [3]: 18500 ng/mL
Structure (SMILES): O=C(O)C1=C(SCSc2c[nH]nn2)CS[C@@H]2[C@H](NC(=O)[C@H](O)c3ccccc3)C(=O)N12 [Example 7-3, 7β-D-mandelamido-3-(1,2,3-triazol-4-ylthiomethylthio)-3-cephem-4-carboxylic acid]

- MIC [6]: 0.02 µg/mL (≈ 0.0389 µM)
- MIC [2]: 0.8 µg/mL (≈ 1.55 µM)
- blood level on oral administration [3]: 29.6 µg/mL
- concentration at 0.25 h [3]: 29600 ng/mL
Structure (SMILES): Nc1nc(/C(=N/O)C(=O)N[C@@H]2C(=O)N3C(C(=O)O)=C(SCSc4c[nH]nn4)CS[C@H]23)cs1 [Example 7-5]

- MIC [1]: 0.1 µg/mL
- MIC [7]: 0.02 µg/mL
- concentration at 0.25 h [3]: 15000 ng/mL
Structure (SMILES): CO/N=C(\C(=O)N[C@@H]1C(=O)N2C(C(=O)O)=C(SCSc3c[nH]nn3)CS[C@H]12)c1csc(N)n1 [Example 7-6, 7β-(Z)-2-(2-aminothiazol-4-yl)-2-methoxyiminoacetyl]amino-3-(1,2,3-triazol-4-yl) thiomethylthio-3-cephem-4-carboxylic acid sodium salt]

- MIC [8]: 0.8 µg/mL (≈ 1.37 µM)
- MIC [9]: 0.8 µg/mL (≈ 1.37 µM)
Structure (SMILES): Nc1nc(/C(=N/OC2CCCC2)C(=O)N[C@@H]2C(=O)N3C(C(=O)O)=C(SCSc4c[nH]nn4)CS[C@H]23)cs1 [Example 7-7, 7β-[(Z)-2-(2-aminothiazol-4-yl)-2-cyclopentyloxyiminoacetamido]-3-(1,2,3-triazol-4-ylthiomethylthio)-3-cephem-4-carboxylic acid]

- MIC [8]: 0.4 µg/mL (≈ 0.721 µM)
- MIC [2]: 0.8 µg/mL (≈ 1.44 µM)
Structure (SMILES): C=CCO/N=C(\C(=O)N[C@@H]1C(=O)N2C(C(=O)O)=C(SCSc3c[nH]nn3)CS[C@H]12)c1csc(N)n1 [Example 7-8, 7β-[(Z)-2-(2-aminothiazol-4-yl)-2-(2-propenyloxyimino)acetamido]-3-(1,2,3-triazol-4-ylthiomethylthio) -3-cephem-4-carboxylic acid]

- MIC [4]: 0.1 µg/mL (≈ 0.206 µM)
- MIC [8]: 0.8 µg/mL (≈ 1.65 µM)
- MIC [7]: 0.8 µg/mL (≈ 1.65 µM)
- concentration at 0.25 h [3]: 17100 ng/mL
Structure (SMILES): Nc1nc(CC(=O)N[C@@H]2C(=O)N3C(C(=O)O)=C(SCSc4c[nH]nn4)CS[C@H]23)cs1 [Example 7-10, 7β-[2-(2-aminothiazol-4yl)acetamido]-3-(1,2,3-triazol-4-ylthiomethylthio)-3-cephem-4-carboxylic acid]

- MIC [8]: 0.4 µg/mL (≈ 0.801 µM)
Structure (SMILES): Nc1nc(C(=O)C(=O)N[C@@H]2C(=O)N3C(C(=O)O)=C(SCSc4c[nH]nn4)CS[C@H]23)cs1 [Example 7-11, 7β-[2-(2-aminothiazol-4-yl)glyoxylylamido]-3-(1,2,3-triazol-4-ylthiomethylthio) -3-cephem-4-carboxylic acid]

- MIC [10]: 0.006 µg/mL
- MIC [7]: 0.006 µg/mL
Structure (SMILES): Nc1nc(/C(=N/OCC(=O)O)C(=O)N[C@@H]2C(=O)N3C(C(=O)O)=C(SCSc4c[nH]nn4)CS[C@H]23)cs1 [Example 7-13, 7μ-[(Z)-2-(2-aminothiazol-4-yl)-2-(sodiooxycarbonylmethoxyimino)acetamido]-3-(1,2,3-triazol-4-ylthiomethylthio) -3-cephem-4-carboxylic acid sodium salt]

- MIC [10]: 0.01 µg/mL
- MIC [8]: 0.2 µg/mL
- MIC [7]: 0.006 µg/mL
Structure (SMILES): C[C@H](O/N=C(\C(=O)N[C@@H]1C(=O)N2C(C(=O)O)=C(SCSc3c[nH]nn3)CS[C@H]12)c1csc(N)n1)C(=O)O [Example 7-14, 7μ-(Z)-2-(2-aminothiazol-4-yl)-2-[(S)-1-sodiooxycarbonylethoxyimino]acetamido}-3-(1,2,3-triazol-4-ylthiomethylthio)-3-cephem-4-carboxylic acid sodium salt]

- MIC [10]: < 0.003 µg/mL
- MIC [11]: 0.8 µg/mL (≈ 1.37 µM)
Structure (SMILES): C=C(O/N=C(\C(=O)N[C@@H]1C(=O)N2C(C(=O)O)=C(SCSc3c[nH]nn3)CS[C@H]12)c1csc(N)n1)C(=O)O [Example 7-15, 7μ-[(Z)-2-(2-aminothiazol-4-yl)-2-(1-carboxyvinyloxyimino)acetamido]-3-(1,2,3-triazol-4-ylthiomethylthio)-3-cephem-4-carboxylic acid]

- MIC [12]: 0.8 µg/mL (≈ 1.33 µM)
- MIC [10]: 0.01 µg/mL (≈ 0.0166 µM)
- MIC [9]: 1.6 µg/mL (≈ 2.66 µM)
Structure (SMILES): CC(C)(O/N=C(\C(=O)N[C@@H]1C(=O)N2C(C(=O)O)=C(SCSc3c[nH]nn3)CS[C@H]12)c1csc(N)n1)C(=O)O [Example 7-16, 7μ-[(Z)-2-(2-aminothiazol-4-yl) -2-(1-carboxy-1-methylethoxyimino)acetamido]-3-(1,2,3-triazol-4-ylthiomethylthio)-3-cephem-4-carboxylic acid]

- MIC [6]: 0.02 µg/mL (≈ 0.0378 µM)
- MIC [2]: 0.8 µg/mL (≈ 1.51 µM)
- MIC [13]: 0.1 µg/mL (≈ 0.189 µM)
Structure (SMILES): Cn1cc(SCSC2=C(C(=O)O)N3C(=O)[C@@H](NC(=O)/C(=N\O)c4csc(N)n4)[C@H]3SC2)nn1 [Example 7-17, 7μ-[(Z)-2-(2-aminothiazol-4-yl) -2-hydroxyiminoacetamido]-3-(1-methyl-1,2,3-triazol-4-yl)thiomethylthio-3-cephem-4-carboxylic acid]

- MIC [6]: 0.02 µg/mL (≈ 0.0378 µM)
Structure (SMILES): Cn1ncc(SCSC2=C(C(=O)O)N3C(=O)[C@@H](NC(=O)/C(=N\O)c4csc(N)n4)[C@H]3SC2)n1 [Example 7-18, 7μ-[(Z)-2-(2-aminothiazol-4-yl)-2-hydroxyiminoacetamido]-3-(2-methyl-1,2,3-triazol-4-yl)thiomethylthio-3 cephem-4-carboxylic acid]

- MIC [6]: 0.02 µg/mL (≈ 0.0378 µM)
- MIC [2]: 0.4 µg/mL (≈ 0.757 µM)
Structure (SMILES): Cn1nncc1SCSC1=C(C(=O)O)N2C(=O)[C@@H](NC(=O)/C(=N\O)c3csc(N)n3)[C@H]2SC1 [Example 7-19]

- MIC [6]: 0.02 µg/mL (≈ 0.0389 µM)
- MIC [14]: 0.05 µg/mL (≈ 0.0972 µM)
- MIC [2]: 0.8 µg/mL (≈ 1.55 µM)
Structure (SMILES): Nc1nc(/C(=N/O)C(=O)N[C@@H]2C(=O)N3C(C(=O)O)=C(SCSc4nc[nH]n4)CS[C@H]23)cs1 [Example 7-20, 7μ-[(Z)-2-(2-aminothiazol-4-yl)-2-hydroxyiminoacetamido]-3-(1,2,4-triazol-3-yl)thiomethylthio-3-cephem-4-carboxylic acid]

- MIC [6]: 0.01 µg/mL (≈ 0.0188 µM)
- MIC [15]: 0.4 µg/mL (≈ 0.752 µM)
- MIC [2]: 0.4 µg/mL (≈ 0.752 µM)
Structure (SMILES): Nc1nc(/C(=N/O)C(=O)N[C@@H]2C(=O)N3C(C(=O)O)=C(SCSc4cnns4)CS[C@H]23)cs1 [Example 7-24, 7μ-[(Z)-2-(2-aminothiazol-4-yl)-2-hydroxyiminoacetyl]amino-3-(1,2,3-thiadiazol-5-yl) thiomethylthio-3-cephem-4-carboxylic acid]

- MIC [1]: 0.1 µg/mL (≈ 0.188 µM)
- MIC [15]: 0.4 µg/mL (≈ 0.752 µM)
- MIC [2]: 0.4 µg/mL (≈ 0.752 µM)
Structure (SMILES): Nc1nc(/C(=N/O)C(=O)N[C@@H]2C(=O)N3C(C(=O)O)=C(SCSc4nncs4)CS[C@H]23)cs1 [Example 7-25, 7μ-[(Z)-2-(2-aminothiazol-4-yl)-2-hydroxyiminoacetamido]-3-(1,3,4-thiadiazol-2-ylthiomethylthio)-3-cephem-4-carboxylic acid]

- MIC [6]: 0.02 µg/mL (≈ 0.0367 µM)
- MIC [1]: 0.05 µg/mL (≈ 0.0916 µM)
- MIC [15]: 0.8 µg/mL (≈ 1.47 µM)
- MIC [2]: 0.8 µg/mL (≈ 1.47 µM)
Structure (SMILES): Cc1nnc(SCSC2=C(C(=O)O)N3C(=O)[C@@H](NC(=O)/C(=N\O)c4csc(N)n4)[C@H]3SC2)s1 [Example 7-26, 7μ-[(Z)-2-(2-aminothiazol-4-yl)-2-hydroxyiminoacetamido]-3-(2-methyl-1,3,4-thiadiazol-5-ylthiomethylthio)-3-cephem-4-carboxylic acid]

- MIC [6]: 0.01 µg/mL (≈ 0.0194 µM)
Structure (SMILES): Nc1nc(/C(=N/O)C(=O)N[C@@H]2C(=O)N3C(C(=O)O)=C(SCSc4nn[nH]n4)CS[C@H]23)cs1 [Example 7-27, 7μ-[(Z) 2-(2-aminothiazol-4-yl)-2-hydroxyiminoacetyl]amino-3-(tetrazol-5-yl)thiomethylthio-3-cephem-4-carboxylic acid]

- MIC [6]: 0.02 µg/mL (≈ 0.0378 µM)
- MIC [1]: 0.1 µg/mL (≈ 0.189 µM)
- MIC [15]: 0.4 µg/mL (≈ 0.755 µM)
- MIC [2]: 0.8 µg/mL (≈ 1.51 µM)
Structure (SMILES): Cn1nnnc1SCSC1=C(C(=O)O)N2C(=O)[C@@H](NC(=O)/C(=N\O)c3csc(N)n3)[C@H]2SC1 [Example 7-28, 7μ-[(Z)-2-(2-aminothiazol-4-yl)-2-hydroxyiminoacetyl]amino-3-(1-methyl-5-tetrazolyl) thiomethylthio-3-cephem-4-carboxylic acid]

- MIC [6]: 0.01 µg/mL (≈ 0.0191 µM)
- concentration at 0.25 h [3]: 18700 ng/mL
Structure (SMILES): Nc1nc(/C(=N/O)C(=O)N[C@@H]2C(=O)N3C(C(=O)O)=C(SCSc4ccccn4)CS[C@H]23)cs1 [Example 7-30]
